Laboratory results from US7250551B2, “Transgenic mice expressing inducible human p25” (President and Fellows of Harvard College, priority 2002, dated 2007).

How the values were obtained:
[1] = tested on: APP subcellular distribution; experiment: Distribution of WT APP in iodixanol step gradient of primary cortical neuron homogenates; assay type: cell-based, rat; details: roscovitine 15 μM for 8 hr (FIG. 18D)
Description: FIGS. 18A-18D depict co-fractionation of T668 phosphorylated APP with BACE1 and endosome markers. (A) Adult mouse brain lysate was fractionated through an iodixanol step gradient. […] (B) Quantification of protein distribution of A (fractions 1-20) showing that full length P-APP co-fractionates with BACE1. (C) Distribution of WT and T668A APP, expressed in rat primary cortical neurons using recombinant herpes simplex virus (HSV), in an iodixanol step gradient. The distribution pattern of BACE1 resembled that of WT APP. (D) Distribution of WT APP in an iodixanol step gradient after roscovitine treatment (15 μM for 8 hr).
FIGS. 25A-25B depict immunoblots showing distribution of APP and BACE1 in iodixanol step gradient. […] Twenty hours post infection, cell homogenates were fractionated through an iodixanol step gradient and the distributions of APP and BACE1 were analyzed. […] Cell homogenates were fractionated and the distributions of APP and BACE1 were analyzed by Western blot analysis.
To assess the significance of T668 phosphorylation in APP subcellular localization, WT APP and the T668A mutant APP were introduced into primary cortical neurons using recombinant herpes simplex virus (HSV). Twenty hours post infection, cell homogenates were fractionated through iodixanol step gradient and the distribution of APP in the collected fractions was analyzed. […]

rat cortical neurons = experiment: MTT cell viability of rat cortical neurons expressing WT APP; assay type: cell-based; details: rat cortical neurons expressing WT APP via HSV
[2] = tested on: T668 phosphorylation on APP; experiment: Ionomycin-induced T668 phosphorylation of APP in primary hippocampal neurons, Western blot; assay type: cell-based, rat; details: for T668 phosphorylation induced by ionomycin: 20 μM inhibitor 15 min before 4 μM ionomycin for 5 hours
Description: Primary hippocampal neurons were cultured as described from E18 rat embryos (Niethammer et al. (2000) Neuron 28:697). 8-day old cultures were treated with different concentrations of ionomycin (Calbiochem). In some cases, hippocampal neurons were incubated with either 20 μM roscovitine (Calbiochem) or 20 μM butyrolactone (Calbiochem) for 15 min at 37° C. before being treated with 4 μM ionomycin for 5 hours. Neurons were lysed in SDS sample buffer and lysates were separated on a 12% acrylamide gel and analyzed by Western blotting.
To determine if neurotoxic conditions influence APP phosphorylation, primary hippocampal neurons were treated with ionomycin.

[3] = tested on: primary neurons from APP(Sw) Tg mice; experiment: MTT cell viability of primary neurons from APP(Sw) Tg mice; assay type: cell-based, mouse; details: roscovitine 8 hours
Description: (§1) Primary cortical neurons were cultured from E15 APP(Sw) Tg mice (Tg2576) (Hsiao et al. (1996) Science 274:99) as described (Niethammer et al. (2000) Neuron 28:697). 4-day-cultured neurons were replaced with new media (DMEM/F 12) and treated with different concentrations of roscovitine (Calbiochem) for 8 hours, or with butyrolactone (Calbiochem) for 16 hours. Aβ secreted into the media from each culture was analyzed by sandwich ELISA (Biosource) according to specifications by the manufacturer. Cell viability was measured by treating neurons with MTT (Sigma) at a final concentration of 0.5 mg/ml for 1 hour. After MTT treatment, cell medium was replaced with DMSO and the optical density of at 495 nm was determined.

[4] = tested on: secreted Aβ(1-40) and Aβ(1-42); experiment: Aβ secreted by rat primary cortical neurons infected with HSV expressing WT APP, sandwich ELISA; assay type: cell-based; details: rat cortical neurons expressing WT APP via HSV, inhibitor 8 hours, dose-dependent, P<0.05
[5] = tested on: secreted Aβ(1-40) and Aβ(1-42); experiment: Aβ secreted into media by primary neurons from APP(Sw) Tg mice, sandwich ELISA; assay type: cell-based, mouse; details: roscovitine 8 hours
Description: FIGS. 7A-7F depict that inhibition of Cdk5 reduces Aβ generation in a Tg mouse model of AD. (A) Inhibition of Cdk5 lead to a decrease in Aβ secretion. Primary mixed hippocampal and cortical neurons were cultured from E17 APP (Swedish) (Sw) Tg mice. 4-day-cultured neurons were treated with the indicated concentration of roscovitine for 8 hours and assayed for the level of Aβ(1-40) secreted into the media. The level of secreted Aβ(1-40) was normalized against the untreated control. The data are the averages (±s.d.) from four independent experiments. (B) As in (A), but the level of Aβ(1-42) in the media was assayed instead. (C) Cell viability was measured using the MTT assay. Cell viability was normalized against the untreated control. […] (F) Cell viability was measured using the MTT assay.
as §1, with “4-day-cultured neurons were replaced with new media (DMEM/F 12) and treated with different concentrations of roscovitine (Calbiochem) for 8 hours, or with butyrolactone (Calbiochem) for 16 hours.” left out

[6] = tested on: T668 phosphorylation of APP; experiment: T668 phosphorylation of full length APP in HSV-APP infected rat cortical neurons, Western blot; details: rat cortical neurons expressing WT APP via HSV, inhibitor 8 hours

SMILES | APP distribution in iodixanol step gradient [1] | cell viability, MTT assay (rat cortical neurons) | T668 phosphorylation induced by ionomycin [2] | cell viability, MTT assay [3] | levels of secreted Aβ(1-40) [4] | levels of secreted Aβ(1-42) [4] | secreted beta-amyloid (1-40) (Aβ(1-40)) levels [5] | secreted beta-amyloid (1-42) (Aβ(1-42)) levels [5] | T668 phosphorylation [6] | T668 phosphorylation on APP ([2]; primary hippocampal neurons treated with ionomycin)
CC[C@H](CO)Nc1nc(NCc2ccccc2)c2ncn(C(C)C)c2n1 [roscovitine] | shifted to heavier membrane fractions | not due to a decline in cell viability | inhibited | not due to a decline in cell viability | significantly reduced | significantly reduced | dose-dependent decrease | also reduced | substantial decreases | –
O=C1CCCO1 [butyrolactone] | – | not due to a decline in cell viability | inhibited | – | significantly reduced | significantly reduced | – | – | substantial decreases | –
C[C@H](CCC(=O)O)C[C@H](C)C[C@H](C)C(=O)/C=C(\O)[C@H](C)C[C@H](C)C/C=C/[C@@H](C)[C@@H](O)[C@@H](C)[C@@H](O)C[C@@H]1CC[C@@](C)([C@H]2CC[C@@](C)([C@@H](C)O)O2)O1 [Ionomycin, ionomycin] | – | – | – | – | – | – | – | – | – | marked elevation
